This is an account of results in patent US20200131669A1, “CYCLIC PEPTIDE COMPOUND HAVING HIGH MEMBRANE PERMEABILITY, AND LIBRARY CONTAINING SAME” (Chugai Seiyaku Kabushiki Kaisha, priority 2017, published 2020).

Starred links: 1 amine or outer side, 2 acyl side, 3 side chain; linkers in the order of their positions; H or OH if unused. Positions of bridges follow the written chain, without caps; N, C: chain ends. Non-standard residues stand in square brackets, D forms with d. Residues, ends and D or L forms follow the SMILES beside them. *: point of attachment. X7 = CC(C(=O)[C@H](Cc1ccccc1)N(C)[*:1])[C@@H](Cc1ccccc1)C(=O)[*:2]; X4 = O=C([C@@H]1C[C@@H](N2CCC(F)(F)CC2)CN1[*:1])[*:2]; Glu(NHSO2Me) = CS(=O)(=O)NC(=O)CC[C@H](N)C(=O)O; NMePhe(3-Cl) = CN[C@@H](Cc1cccc(Cl)c1)C(=O)O; X16 = O=C(C1CCCCC1)[C@H](CC(=O)[*:2])N[*:1]; X12 = CCCC[C@@H](O)[C@H](N[*:1])C(=O)[*:2]; NMeW = CN[C@@H](Cc1c[nH]c2ccccc12)C(=O)O; hNle(7,7-F2) = N[C@@H](CCCCC(F)F)C(=O)O; X9 = O=C(CN(CCOc1ccccc1)[*:1])[*:2]; hhPhe = N[C@@H](CCCc1ccccc1)C(=O)O; Hyp = O=C(O)[C@@H]1C[C@@H](O)CN1; NMeF = CN[C@@H](Cc1ccccc1)C(=O)O; NMeGABA = CN(CCCC(=O)[*:2])[*:1]; NMeI = CC[C@H](C)[C@H](NC)C(=O)O; 4Pal = N[C@@H](Cc1ccncc1)C(=O)O; NMeD = CN[C@@H](CC(=O)O)C(=O)O; NMeL = CN[C@@H](CC(C)C)C(=O)O; NMeNva = CCC[C@H](NC)C(=O)O; NMeV = CN[C@H](C(=O)O)C(C)C; NMeAbu = CC[C@H](NC)C(=O)O; NMeA = CN[C@@H](C)C(=O)O; Piperidide = C1CCN(*)CC1; dAbu = CC[C@@H](N)C(=O)O; Abu = CC[C@H](N)C(=O)O; NBuGly = CCCCNCC(=O)O; Isopentyl = CC(C)CC*; NPrGly = CCCNCC(=O)O; Sar = CNCC(=O)O; tBu = CC(C)(C)*

One series can be described thus: Caco-2 membrane permeability, improved method as used in the following Examples (96-well, 20 to 24 h preincubation). It counts as in vitro ADME. As to conditions: Caco-2, Caco-2. An outline of the steps:
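Papp (cm/sec) was derived from LC/MS of basal samples collected 180 min after apical dosing in FaSSIF/HBSS pH 6.0 with 1% DMSO, against a basal HBSS pH 7.4 receiver containing 4% BSA. Three-week Caco-2 cultures were first preincubated with compound in DMEM+FaSSIF at 37 °C for 20–24 h.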
Compound `CC(C)C[C@H]1C(=O)N[C@@H](CCCc2ccccc2)C(=O)N(C)[C@@H](Cc2ccccc2)C(=O)N(C)[C@@H](C(C)C)C(=O)N[C@H](C(=O)N2CCCCC2)CC(=O)N[C@H](C)C(=O)N(C)[C@@H](Cc2ccccc2)C(=O)N[C@@H](C(C)C)C(=O)N(C)[C@@H](CC(C)C)C(=O)N[C@@H]([C@@H](C)O)C(=O)N(C)CC(=O)N1C` [pd364] ([dA][NMeF]V[NMeL]T[Sar][NMeL][hhPhe][NMeF][NMeV]D-Piperidide; lactam N-11) gave a Papp A→B of 1 ×10⁻⁶ cm/s.

The series is the same for the next values; noted with them: human, Caco-2, Caco-2.
`CCCN1CC(=O)N(C)[C@@H](Cc2ccccc2)C(=O)N[C@@H](CCCCC(F)F)C(=O)N(C)[C@@H](CC(C)C)C(=O)N[C@@H]([C@@H](C)O)C(=O)N(C)CC(=O)N(C)[C@@H](Cc2ccccc2)C(=O)N(C)[C@@H](CC(C)C)C(=O)N[C@@H](COC(C)(C)C)C(=O)N(C)[C@@H](C(C)C)C(=O)N[C@H](C(=O)N2CCCCC2)CC1=O` [pd336] ([NPrGly][NMeF][hNle(7,7-F2)][NMeL]T[Sar][NMeF][NMeL]S(tBu)[NMeV]D-Piperidide; lactam N-11): the Papp A→B at 180 min came out at 2.5 ×10⁻⁶ cm/s. Turning to `CCC[C@H]1C(=O)N[C@@H](COC(C)(C)C)C(=O)N(C)[C@@H](CC(C)C)C(=O)N(C)[C@@H](CC(C)C)C(=O)N[C@@H](CC(C)C)C(=O)N[C@@H]([C@@H](C)O)C(=O)N2C[C@H](OCC)C[C@H]2C(=O)N[C@@H](Cc2ccccc2)C(=O)N(C)[C@@H](CC(C)C)C(=O)N[C@H](C(=O)N2CCCCC2)CC(=O)N[C@H](C(C)C)C(=O)N1C` [pd380] ([dV][NMeNva]S(tBu)[NMeL][NMeL]LT[Hyp](Et)F[NMeL]D-Piperidide; lactam N-11), the Papp A→B at 180 min turned out to be 3.8 ×10⁻⁶ cm/s. Consider `CC(C)CCOC[C@@H]1NC(=O)[C@H](CC(C)C)N(C)C(=O)CCCN(C)C(=O)C[C@@H](C(=O)N2CCCCC2)NC(=O)[C@H](CC(C)C)N(C)C(=O)[C@H](C)N(C)C(=O)[C@H]([C@@H](C)O)NC(=O)[C@H](CC(C)C)N(C)C(=O)[C@H](COC(C)(C)C)NC(=O)[C@H](Cc2ccccc2)N(C)C(=O)[C@H](Cc2ccccc2)N(C)C1=O` [pd303] ([NMeGABA][NMeL]S(Isopentyl)[NMeF][NMeF]S(tBu)[NMeL]T[NMeA][NMeL]D-Piperidide; lactam N-11), for which the Papp A→B at 180 min was found to be 1 ×10⁻⁶ cm/s.

Compound `CCCC[C@@H](O)[C@@H]1NC(=O)[C@H](Cc2ccccc2)N(C)C(=O)[C@H](Cc2ccccc2)N(C)C(=O)[C@H]([C@@H](C)CC)NC(=O)[C@H](CC(C)C)N(C)C(=O)CCCN(C)C(=O)C[C@@H](C(=O)N2CCCCC2)NC(=O)[C@H](CC(C)C)N(C)C(=O)[C@H](C)N(C)C(=O)[C@H]([C@@H](C)O)NC(=O)[C@H](CC(C)C)N(C)C1=O` [pd468] ([NMeGABA][NMeL]I[NMeF][NMeF][X12][NMeL]T[NMeA][NMeL]D-Piperidide; lactam N-11) had a Papp A→B at 180 min of 1 ×10⁻⁶ cm/s. Consider `CC[C@@H]1NC(=O)[C@H](Cc2ccccc2)N(C)C(=O)[C@H](CC(C)C)N(C)C(=O)[C@H](CC(C)C)NC(=O)[C@H](CC)N(C)C(=O)C[C@@H](C(=O)N2CCCCC2)NC(=O)[C@H](CC(C)C)N(C)C(=O)CN(C)C(=O)[C@H]([C@@H](C)O)NC(=O)CN(CCOc2ccccc2)C(=O)[C@H](CC(C)C)N(C)C1=O` [pd424] ([NMeAbu]L[NMeL][NMeF][Abu][NMeL][X9]T[Sar][NMeL]D-Piperidide; lactam N-11), for which the Papp A→B at 180 min turned out to be 1.2 ×10⁻⁶ cm/s. `CC[C@H]1NC(=O)C[C@@H](C(=O)N2CCCCC2)NC(=O)[C@H](CC(C)C)N(C)C(=O)[C@H](Cc2ccccc2)NC(=O)[C@@H]2C[C@@H](N3CCC(F)(F)CC3)CN2C(=O)[C@H]([C@@H](C)O)NC(=O)[C@H](CC(C)C)N(C)C(=O)[C@H](CC(C)C)NC(=O)[C@H](CC(C)C)N(C)C(=O)[C@H](COC(C)(C)C)NC(=O)[C@H](CC(C)C)N(C)C1=O` [pd459] ([dAbu][NMeL]S(tBu)[NMeL]L[NMeL]T[X4]F[NMeL]D-Piperidide; lactam N-11) had a Papp A→B at 180 min of 1.6 ×10⁻⁶ cm/s. On to `CC[C@H](C)[C@@H]1NC(=O)[C@H](CC(C)C)N(C)C(=O)CCCN(C)C(=O)C[C@@H](C(=O)N2CCCCC2)NC(=O)[C@H](CC(C)C)N(C)C(=O)[C@H](C)N(C)C(=O)[C@H]([C@@H](C)O)NC(=O)[C@H](CC(C)C)N(C)C(=O)[C@H](COCCC(C)C)NC(=O)[C@H](Cc2ccccc2)N(C)C(=O)[C@H](Cc2ccccc2)N(C)C1=O` [pd302] ([NMeGABA][NMeL]I[NMeF][NMeF]S(Isopentyl)[NMeL]T[NMeA][NMeL]D-Piperidide; lactam N-11), for which the Papp A→B at 180 min came to 1.4 ×10⁻⁶ cm/s. `CCCCN1CC(=O)N(C)[C@@H](Cc2cccc(Cl)c2)C(=O)N[C@@H](CCC(=O)NS(C)(=O)=O)C(=O)N(C)[C@@H](CC(C)C)C(=O)N[C@@H]([C@@H](C)O)C(=O)N(CCCC)CC(=O)N(C)[C@@H](Cc2ccccc2)C(=O)N(C)[C@@H](CC(C)C)C(=O)N[C@@H](CC(C)C)C(=O)N(C)[C@@H](CC(C)C)C(=O)N[C@H](C(=O)N2CCCCC2)CC1=O` [pd66] ([NBuGly][NMePhe(3-Cl)][Glu(NHSO2Me)][NMeL]T[NBuGly][NMeF][NMeL]L[NMeL]D-Piperidide; lactam N-11) showed a Papp A→B at 180 min of 0.09 ×10⁻⁶ cm/s.

Still in this series, the particulars now being: human, Caco-2, Caco-2 (cm/sec).
The compound `CC(C)C[C@@H]1NC(=O)[C@H](Cc2ccccc2)N(C)C(=O)[C@H]2CCCN2C(=O)C[C@@H](C(=O)N2CCCCC2)N(C)C(=O)[C@H](Cc2ccccc2)N(C)C(=O)[C@H](Cc2ccccc2)N(C)C(=O)[C@H](COC(C)(C)C)NC(=O)[C@H](C(C)C)N(C)C(=O)CN(C)C(=O)[C@H]([C@@H](C)O)NC(=O)[C@H](CC(C)C)N(C)C1=O` [pd200] ([dP][NMeF]L[NMeL]T[Sar][NMeV]S(tBu)[NMeF][NMeF][NMeD]-Piperidide; lactam N-11) gave a Papp A→B at 180 min of 2.6 ×10⁻⁶ cm/s. `CC(C)C[C@H]1C(=O)NCC(=O)N[C@H](C(=O)N(C)[C@@H](Cc2ccccc2)C(=O)N(C)[C@@H](Cc2ccccc2)C(=O)N[C@@H](C)C(=O)N2CCCCC2)CC(=O)N[C@@H](C)C(=O)N[C@@H]([C@@H](C)O)C(=O)N(C)[C@@H](C)C(=O)N(C)[C@@H](Cc2ccccc2)C(=O)N[C@@H](C(C)C)C(=O)N(C)[C@@H](Cc2ccccc2)C(=O)N1C` [pd247] (AT[NMeA][NMeF]V[NMeF][NMeL]GD[NMeF][NMeF]A-Piperidide; lactam N-9) came in with a Papp A→B at 180 min of 0.087 ×10⁻⁶ cm/s.

`CC[C@H](C)[C@@H]1NC(=O)[C@H](CC(C)C)N(C)C(=O)CCCN(C)C(=O)C[C@@H](C(=O)C2CCCCC2)NC(=O)[C@H](CC(C)C)N(C)C(=O)[C@H](C)N(C)C(=O)[C@H](Cc2ccncc2)NC(=O)[C@H](CC(C)C)N(C)C(=O)[C@H](COC(C)(C)C)NC(=O)[C@H](Cc2cccc(Cl)c2)N(C)C(=O)[C@H](CC(C)C)N(C)C1=O` [pd170] (cyclo([4Pal][NMeA][NMeL][X16][NMeGABA][NMeL]I[NMeL][NMePhe(3-Cl)]S(tBu)[NMeL])) yielded a Papp A→B at 180 min of 1.6 ×10⁻⁶ cm/s. On the same count and under the same terms, the same measure for `CC(C)C[C@@H]1NC(=O)[C@H](Cc2ccccc2)N(C)C(=O)[C@H]2CCCN2C(=O)C[C@@H](C(=O)N2CCCCC2)NC(=O)[C@H](Cc2ccccc2)N(C)C(=O)[C@H](Cc2ccccc2)N(C)C(=O)[C@H](COC(C)(C)C)NC(=O)[C@H](CC(C)C)N(C)C(=O)CN(C)C(=O)[C@H]([C@@H](C)O)NC(=O)[C@H](CC(C)C)N(C)C1=O` [pd206] ([dP][NMeF]L[NMeL]T[Sar][NMeL]S(tBu)[NMeF][NMeF]D-Piperidide; lactam N-11): 1.8 ×10⁻⁶ cm/s; for `CC(C)C[C@@H]1NC(=O)[C@H](Cc2ccccc2)N(C)C(=O)[C@H](COC(C)(C)C)NC(=O)[C@H](Cc2ccccc2)N(C)C(=O)[C@H](C)N(C)C(=O)[C@H](CC(C)C)N(C)C(=O)[C@@H](C)NC(=O)C[C@@H](C(=O)N2CCCCC2)N(C)C(=O)[C@H](Cc2ccccc2)N(C)C(=O)[C@H]([C@@H](C)O)NC(=O)[C@H](C(C)C)N(C)C1=O` [pd208] ([dA][NMeL][NMeA][NMeF]S(tBu)[NMeF]L[NMeV]T[NMeF][NMeD]-Piperidide; lactam N-11): 1.7 ×10⁻⁶ cm/s.

Compound `CC[C@H](C)[C@H]1C(=O)N[C@@H]([C@@H](C)O)C(=O)N(C)CC(=O)N(C)[C@@H](CC(C)C)C(=O)N[C@H](C(=O)N2CCCCC2)CC(=O)N(C)[C@@H](C)C(=O)N[C@@H](CC(C)C)C(=O)N(C)[C@@H](CC(C)C)C(=O)N(C)[C@@H](Cc2c[nH]c3ccccc23)C(=O)N[C@@H](C(C)C)C(=O)N(C)[C@@H](CC(C)C)C(=O)N1C` [pd102] ([NMeA]L[NMeL][NMeW]V[NMeL][NMeI]T[Sar][NMeL]D-Piperidide; lactam N-11) returned a Papp A→B at 180 min of 1.1 ×10⁻⁶ cm/s. For the compound `CC[C@H](C)[C@@H]1NC(=O)[C@H](CC(C)C)N(C)C(=O)CCCN(C)C(=O)C[C@@H](C(=O)N2CCCCC2)NC(=O)[C@H](CC(C)C)N(C)C(=O)[C@H](CC(C)C)N(C)C(=O)[C@H]([C@@H](C)O)NC(=O)[C@H](CC(C)C)N(C)C(=O)[C@H](COC(C)(C)C)NC(=O)[C@H](Cc2c[nH]c3ccccc23)N(C)C(=O)[C@H](Cc2ccccc2)N(C)C1=O` [pd107] ([NMeGABA][NMeL]I[NMeF][NMeW]S(tBu)[NMeL]T[NMeL][NMeL]D-Piperidide; lactam N-11), the Papp A→B at 180 min is 0.17 ×10⁻⁶ cm/s.

The series is the same for the next values; noted with them: human, Caco-2, Papp; Table 23-1, sequences where ARC = 3; read-out: Caco-2.
For `CC(C)C[C@@H]1NC(=O)[C@H](Cc2ccccc2)N(C)C(=O)[C@@H]2CCCN2C(=O)C[C@@H](C(=O)N2CCCCC2)N(C)C(=O)[C@H](Cc2ccccc2)C(C)C(=O)[C@H](Cc2ccccc2)N(C)C(=O)[C@H](COC(C)(C)C)NC(=O)[C@H](C(C)C)N(C)C(=O)CN(C)C(=O)[C@H]([C@@H](C)O)NC(=O)[C@H](CC(C)C)N(C)C1=O` (some centres unmarked) [pd196] (P[NMeF]L[NMeL]T[Sar][NMeV]S(tBu)[X7][NMeD]-Piperidide; lactam N-10), the Papp A→B at 180 min was determined as 4 ×10⁻⁶ cm/s.
